In one experiment the test system is male golden hamsters. The experiment can be described thus: Resident/intruder paradigm of offensive aggression. It counts as in vivo, Syrian golden hamsters (Mesocricetus auratus). As for the experimental part: Male Syrian golden hamsters (Mesocricetus auratus) (140-150 g) obtained from Harlan Sprague-Dawley Laboratories (Indianapolis, Ind.) were housed individually in Plexiglas cages (24 cm×24 cm×20 cm), maintained on a reverse light:dark cycle (14L:10D; lights on at 19:00 hr) and provided food and water ad libitum. Animals were acclimated to the reverse light:dark cycle for at least two weeks before testing. All behavioral tests were conducted during the dark phase of the circadian cycle. All animals were acquired and cared for in accordance with the guidelines published in the Guide for the Care and Use of Laboratory Animals (National Institutes of Health Publications No. 85-23, Revised 1985).
(§1) Agonistic behavior can be classified as either offensive or defensive aggression (Blanchard and Blanchard, 1977; Adams, […]; Albert and Walsh, 1984). Offensive aggression is characterized by the aggressor initiating an attack on an opponent, while defensive aggression lacks active approach. Both types of aggression have their own unique neurobehavioral systems. The stimuli that elicit offensive and defense attack are different, as are the sequences of behaviors that accompany each agonistic response. […] Offensive aggression is easily studied using male golden hamsters tested in a resident/intruder paradigm, an established model of offensive aggression (Ferris and Potegal 1988). Placing an unfamiliar male hamster into the home cage of another male hamster elicits a well-defined sequence of agonistic behaviors from the resident that includes offensive aggression.
Hamsters are nocturnal and as such all behavioral tests were performed during the first four hrs of the dark phase under dim red illumination. The resident was scored for offensive aggression, e.g., latency to bite the intruder, the total number of bites, total contact time with the intruder and flank marking over a 10 min test period (Ferris and Potegal, 1988). Flank marking is a form of olfactory communication in which a hamsters arches its back and rubs pheromone producing flank glands against objects in the environment (Johnson, 1986).
Parametric data, i.e., latencies and contact time, were analyzed with a one-way ANOVA followed by Newman-Keuls post hoc tests. Non parametric data, i.e., number of bites and flank marks, were analyzed with Kruskal-Wallis tests followed by Mann-Whitney U tests to determine differences between groups. Two sample comparisons were analyzed with paired and unpaired t-Tests for parametric data and Wilcoxon and Mann-Whitney Tests for paired and unpaired non-parametric data, respectively.
as §1, with “by an” for “by the”, “an opponent; while,” for “an opponent, while”, “Potegal 1988) in the context of defending the home burrow.” for “Potegal 1988).”
Hamsters are nocturnal and as such all behavioral tests were performed during the first four hrs of the dark phase under dim red illumination. The resident was scored for offensive aggression, e.g., latency to bite the intruder, the total number of bites, total contact time with the intruder and flank marking over a 10 min test period (Ferris and Potegal, 1988). […]

A further experiment concerns Male Wistar rats. The experiment can be described thus: Elevated plus-maze (anxiolytic activity). It counts as in vivo, rat. An excerpt: The elevated plus-maze was developed for the detection of anxiolytic and anxiogenic drug effects in the rat (Pellow et al., 1985). The method has been validated behaviorally, physiologically, and pharmacologically. The plus-maze consists of two open arms and two enclosed arms. […] Conversely, anxiogenic compounds like yohimbin or amphetamines reduce open arm entries and time spent in the open arms.
Male Wistar rats weighing 250-300 g were group housed in a normal 12:12 light-dark cycle light on at 0800 hr and provide food and water ad libitum. The plus-maze consisted of two open arms, 50×10 cm, and two enclosed arms 50×10×40 cm with an open roof, arranged such that the two open arms were opposite to each other. The maze was elevated to a height of 50 cm.
Eight animals were tested in the plus-maze 90 min following IP injection with 50 μg/kg Mox and saline vehicle. The order of treatments was counter balanced with at least 48 hrs between injections. At the start of the experiment the animal was place in the center of the plus maze facing the closed arm. Over a five min observation period, animals were scored for the latency to enter the closed arm, time spent in the closed arm and the number of open arm entries following the first occupation of the closed arm (FIG. 7).
Because Mox and CDP have different bioavailability profiles, e.g. brain penetrance, their CNS activity could not be compared by giving systemic injections of equimolar concentrations of each drug. Instead it was necessary to give both drugs directly into the cerebroventricular system to by pass the blood brain barrier. Animals were anesthetized with sodium pentobarbital (50 mg/kg), implanted with microinjection guide cannulae aimed at the lateral ventricle and allowed to recover for two days before testing. To groups of six animals each were tested with Mox or CDP. Each animals received a injection of drug and 0.9% NaCl vehicle on two separate days. The order of injections was counterbalanced and separated by two days. Both Mox and CDP were prepared in 0.9% NaCl at a concentration of 1 mM. All injections were given in a volume of 2 ul over 10 secs in fully conscious, restrained animals. Sixty min later animals were tested in the plus-maze for a 3 min observation period and scored for behaviors as noted previously.
The elevated plus-maze was developed for screening anxiolytic and anxiogenic drug effects in the rat (Pellow et al., 1985). The method has been validated behaviorally, physiologically, and pharmacologically. The plus-maze consists of two open arms and two enclosed arms. […] Conversely, anxiogenic compounds like yohimbin or amphetamines reduce open arm entries and time spent in the open arms.
Male Wistar rats weighing 250-300 g were group housed in a normal 12:12 light-dark cycle with light on at 0800 hr and provided food and water ad libitum. The plus-maze consisted of two open arms, 50 cm long, 10 cm wide, with walls 40 cm high made of clear Plexiglas. The two closed arms had the same dimensions but included a roof. The Plexiglas for the closed arms was painted black. Each pair of arms was arranged opposite to each other to form the plus-maze. The maze was elevated to a height of 50 cm. Eighteen animals were tested in the plus-maze 90 min following the IP injection of 1.0 μg/kg CLAV, 50 or vehicle control in a volume of ca. 0.3 ml. The order of treatments was counter balanced with at least 48 hrs between injections. At the start of the experiment, the animal was placed at the end of one of the open arms. Over a five min observation period, animals were scored for the latency to enter the closed arm, time spent in the closed arm and the number of open arm entries following the first occupation of the closed arm. The study produced tables of repeated measures. The data between treatments were compared with a two-way, repeated measures ANOVA followed by Bonferroni post hoc tests. […]

[1] abbreviates: 50 μg/kg IP, 90 min, thirteen hamsters.
Where [2] appears, read: daily IP for seven days: CLAV 100 ng/kg, CDP 10 mg/kg.

From US7842683B2, “Neurotherapeutic compositions and method” (Revaax Pharmaceuticals, LLC, priority 1999, dated 2010) come the findings set out here.

On to `CO[C@@]1(NC(=O)C(C(=O)O)c2ccc(O)cc2)C(=O)N2C(C(=O)O)=C(CSc3nnnn3C)CO[C@@H]21` (stereo partly drawn) [Mox, 7-β-[2-carboxy-2-(4-hydroxyphenyl)acetamido]-7α-methoxy-3-[[(1-methyl-1H-tetrazol-5-yl)thio]methyl]-1-oxa-1-dethia-3-cephem-4-carboxylic acid], for which the bite latency result with male golden hamsters (setting [1]) is “significantly increased”; in the experiment with male golden hamsters (dose response, 500 μg and 5.0 mg) it was “significantly increased”. Moreover, the contact time entry in the experiment with male golden hamsters (setting [1]) is “no significant change”; in the experiment with male golden hamsters (50 mg/kg IP, 90 min), “significantly reduced”; in the experiment on male golden hamsters (dose response, 500 μg and 5 mg), “significantly reduced”; with male golden hamsters (equimolar (90 μM) IP, 90 min), “no significant treatment effect”. In addition, the flank marking entry with male golden hamsters (setting [1]) is “no significant change”; in the experiment with male golden hamsters (50 mg/kg IP, 90 min), “did not reach significance”; in the experiment on male golden hamsters (dose response, 0.5-5000 μg/kg, between groups), “not significantly different”; in the experiment with male golden hamsters (equimolar (90 μM) IP, 90 min), “no significant treatment effect”. For the same compound, the number of bites entry with male golden hamsters (setting [1]) was “reduced”; in the experiment on male golden hamsters (50 mg/kg IP, 90 min, 10 min observation), “significantly reduced”; in the experiment with male golden hamsters (dose response, 50 μg), “significant reduction”; in the experiment on male golden hamsters (equimolar (90 μM) IP, 90 min) it was “significantly reduced”. Further, in the experiment on male golden hamsters (50 mg/kg IP, 90 min after treatment, 10 min observation, vs saline), the “mean latency to bite” value was “over six”. Further, in the experiment on male golden hamsters (dose response, 50 μg), the “animals that never bite in the 10 min observation period” value is listed as “three of six”. In the experiment on male golden hamsters (dose response, 50 μg/kg), the “delay of bite latency vs vehicle” value was “over seven”. For the same compound, the “behavioral measures of offensive aggression” value with male golden hamsters (dose response, doses of 5.0 μg and less) is “no effect”. Besides, the latency to bite result with male golden hamsters (equimolar (90 μM, equal to 50 μg/kg Mox) IP, 90 min) is on record as “significantly delayed”. Moreover, the “number of open arm entries” value in the experiment on Male Wistar rats (50 μg/kg IP, 90 min) was “significantly elevated”. Further, the “time spent in the closed arm” value in the experiment with Male Wistar rats (50 μg/kg IP, 90 min) is recorded as “significantly reduced”. In addition, the “latency to enter the closed arm” value in the experiment with Male Wistar rats (50 μg/kg IP, 90 min, five min observation) was “significantly increased”; in the experiment on Male Wistar rats (1 mM, 2 ul into lateral ventricle, 60 min, 3 min observation) it was “significantly (p<0.05) delayed”. Moreover, in the experiment on Male Wistar rats (1 mM, 2 ul into lateral ventricle, 60 min), the “time spent in the closed arm (dark)” value is “significantly (p<0.01) lower”.

For the compound `O=C(O)[C@H]1/C(=C/CO)O[C@@H]2CC(=O)N21` [CLAV, Clavulanic acid], in the experiment with male golden hamsters (CLAV 200 μg/kg IP, 90 min), the “contact time with the intruder” value is “no significant main effect” and the flank marking result is “no significant effect”. The “latency to bite the intruder” value in the experiment with male golden hamsters (CLAV 200 μg/kg IP, 90 min, trend toward significance) is listed as “no significant main effect”. Moreover, in the experiment with male golden hamsters (CLAV 200 μg/kg IP, 90 min, thirteen for vehicle), the “median number of bites” value is given as “six”. Also, the aggressive behavior result with male golden hamsters (pilot studies, 1.0 μg/kg IP) is reported as “no effect”. Further, in the experiment with Male Wistar rats (CLAV 1.0 μg/kg IP, 90 min), the open arm entries result was “increased movement into the lighted open arms” and the “time spent in the open arm” value was “significantly increased”. In addition, the “latency to enter the dark (time in starting open light position)” value in the experiment on Male Wistar rats (CLAV 1.0 μg/kg IP, 90 min, five min observation) is “longer”. Moreover, in the experiment with Male Wistar rats (setting [2]), the “latency to enter the dark closed arms” value is recorded as “significantly greater” and the “time spent exposed to light in the open arms” value is given as “significantly greater”.
